# Data: US10633417B2 (priority 2013, dated 2020)
# Columns and labels:
# Sprague Dawley rats [1] = conditions: rat, in vivo
# Sprague-Dawley rats [2] = conditions: rat, in vivo
# Sprague Dawley rats [3] = conditions: rat, in vivo; remark: listed apart in the source
# [4] = target: human α9 (Ile56 to Thr) α10 nAChR (Homo sapiens, UniProt Q9GZZ6+Q9UGM1, I86T); assay type: cell-based
# Sprague-Dawley rats [5] = conditions: rat, in vivo; remark: listed apart in the source
# rat α9α10 nAChR = rat α9α10 nAChR (Rattus norvegicus, UniProt P43144+Q9JLB5); conditions: cited from earlier work
# [6] = target: rat α9 (Thr56 to Ile) α10 nAChR (Rattus norvegicus, UniProt P43144+Q9JLB5, T86I); assay type: cell-based
# Sprague-Dawley rats [7] = conditions: rat, in vivo; remark: listed apart in the source
# Sprague-Dawley rats [8] = conditions: rat, in vivo; remark: listed apart in the source
# rat α9α10 nAChR, sequence (P43144 26-479 limits assumed): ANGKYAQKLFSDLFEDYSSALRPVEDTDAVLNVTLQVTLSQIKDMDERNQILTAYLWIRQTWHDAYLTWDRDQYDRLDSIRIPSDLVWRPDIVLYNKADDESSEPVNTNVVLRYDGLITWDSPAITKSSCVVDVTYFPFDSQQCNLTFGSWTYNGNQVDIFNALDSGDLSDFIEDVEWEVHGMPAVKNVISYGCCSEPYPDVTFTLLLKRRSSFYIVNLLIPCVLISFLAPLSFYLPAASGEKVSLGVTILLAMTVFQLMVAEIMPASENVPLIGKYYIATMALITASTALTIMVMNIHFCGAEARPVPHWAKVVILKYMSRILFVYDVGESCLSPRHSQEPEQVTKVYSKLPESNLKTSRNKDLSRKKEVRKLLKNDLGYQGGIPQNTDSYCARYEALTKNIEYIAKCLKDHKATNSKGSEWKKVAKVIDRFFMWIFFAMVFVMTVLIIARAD
# rat α9α10 nAChR, sequence (Q9JLB5 25-447 limits assumed): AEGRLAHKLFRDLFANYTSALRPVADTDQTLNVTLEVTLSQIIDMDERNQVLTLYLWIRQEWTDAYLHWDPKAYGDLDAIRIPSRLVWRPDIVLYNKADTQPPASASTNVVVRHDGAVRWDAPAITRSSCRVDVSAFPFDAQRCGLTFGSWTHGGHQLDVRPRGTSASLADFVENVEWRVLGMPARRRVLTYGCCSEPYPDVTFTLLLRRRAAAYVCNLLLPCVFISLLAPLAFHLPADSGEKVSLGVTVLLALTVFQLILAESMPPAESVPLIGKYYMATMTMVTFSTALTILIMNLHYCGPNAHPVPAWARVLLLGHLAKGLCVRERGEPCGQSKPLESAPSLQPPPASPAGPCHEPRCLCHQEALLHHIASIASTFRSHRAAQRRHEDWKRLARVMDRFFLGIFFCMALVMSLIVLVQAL
# human α9 (Ile56 to Thr) α10 nAChR, sequence (Q9UGM1 26-479 I86T limits assumed, stated change not applied): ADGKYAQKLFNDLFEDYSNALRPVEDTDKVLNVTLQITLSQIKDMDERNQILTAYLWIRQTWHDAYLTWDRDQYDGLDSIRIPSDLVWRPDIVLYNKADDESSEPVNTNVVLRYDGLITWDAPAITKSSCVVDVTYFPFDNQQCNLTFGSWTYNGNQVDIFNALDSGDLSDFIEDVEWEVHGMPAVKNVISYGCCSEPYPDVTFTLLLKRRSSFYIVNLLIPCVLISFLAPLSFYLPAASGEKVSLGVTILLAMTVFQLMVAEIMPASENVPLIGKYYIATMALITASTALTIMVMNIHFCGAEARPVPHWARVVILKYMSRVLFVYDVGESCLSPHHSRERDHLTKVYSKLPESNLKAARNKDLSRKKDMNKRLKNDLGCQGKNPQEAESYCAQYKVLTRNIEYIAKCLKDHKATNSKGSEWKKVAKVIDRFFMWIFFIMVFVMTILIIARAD
# human α9 (Ile56 to Thr) α10 nAChR, sequence (Q9GZZ6 25-450 limits assumed, stated change not applied): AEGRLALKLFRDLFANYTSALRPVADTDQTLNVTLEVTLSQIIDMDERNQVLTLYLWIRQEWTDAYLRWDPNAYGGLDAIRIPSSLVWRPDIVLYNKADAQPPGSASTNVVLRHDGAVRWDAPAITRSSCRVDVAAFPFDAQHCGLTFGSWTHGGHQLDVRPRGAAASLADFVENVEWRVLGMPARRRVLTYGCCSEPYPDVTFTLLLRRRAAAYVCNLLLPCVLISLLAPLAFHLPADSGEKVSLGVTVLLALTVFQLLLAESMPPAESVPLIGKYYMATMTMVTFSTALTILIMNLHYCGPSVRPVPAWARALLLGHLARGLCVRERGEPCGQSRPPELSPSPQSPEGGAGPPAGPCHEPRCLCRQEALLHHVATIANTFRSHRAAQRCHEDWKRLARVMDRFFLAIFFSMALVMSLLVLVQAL
# rat α9 (Thr56 to Ile) α10 nAChR, sequence (P43144 26-479 T86I limits assumed, stated change not applied): as the sequence (P43144 26-479 limits assumed) above, with T61I counted along it
# rat α9 (Thr56 to Ile) α10 nAChR, sequence (Q9JLB5 25-447 limits assumed, stated change not applied): as the sequence (Q9JLB5 25-447 limits assumed) above
Substance,burn-induced thermal hyperalgesia (Hargraves method) (Sprague Dawley rats [1]),"thermal hyperalgesia in the FTTI model, acute treatment (Sprague Dawley rats [1])","prevention of OXA-induced cold allodynia, day 7 (Sprague-Dawley rats [2])","prevention of OXA-induced cold allodynia, day 14 and 21 (Sprague-Dawley rats [2])","mechanical allodynia in the FTTI model, acute treatment (Sprague Dawley rats [3])",RgIA potency on human receptor with α9 Ile56 to Thr [4],increase in RgIA potency on human receptor with α9 Ile56 to Thr [4] [log],efficacy on mechanical hyperalgesia 24 h after injection (Sprague-Dawley rats [5]),pain threshold (mechanical hyperalgesia) 30 min after injection (Sprague-Dawley rats [5]),prevention of OXA-induced mechanical hyperalgesia (Sprague-Dawley rats [5]),potency on the human versus rat α9α10 nAChR (rat α9α10 nAChR),RgIA potency on rat receptor with Thr56 to Ile in α9 [6],"activity on mechanical allodynia (von Frey), days 14 and 21 (Sprague-Dawley rats [7])","analgesic effect (von Frey), day 7, 24 h later (Sprague-Dawley rats [7])",analgesic effect in OXA chemotherapy induced neuropathic pain (Sprague-Dawley rats [8])
GCCSDPRCRYRCR [RgIA],significantly reduced,effectively reduces,able to prevent OXA-induced cold allodynia,able to prevent OXA-induced cold allodynia,effectively reduces,increase in RgIA potency on the human receptor to levels found in rat,2,still significant,acutely increased pain threshold,significantly prevented,~170 fold,reduction in RgIA potency on the rat receptor to levels found with the human receptor,active,not observed,significant analgesic effects on days 14 and 21
Vc1.1,,,,,,,,,,,significantly less potent,,,,
